Where a SMILES comes first, the peptide text is derived from it. Bridges are numbered along the chain shown (N, C = ends). [ ]: non-standard residue; d: D form. Hyp = O=C(O)[C@@H]1C[C@@H](O)CN1; Pen = CC(C)(S)[C@H](N)C(=O)O; dDab = NCC[C@@H](N)C(=O)O; Dab = NCC[C@H](N)C(=O)O

Holding throughout (format): cell-based
Data set [1] relates to human red blood cells (hRBC). The settings on record: red cells of human, 1 h, 200 μg/mL. As to the method: Lyophilized peptides were weighed on a Microbalance (Mettler MT5) and dissolved in sterile water to a final concentration of 1 mg/mL. Stock solutions were kept at +4° C., light protected. The peptides were tested for their hemolytic activity against human red blood cells (hRBC). Fresh hRBC were washed three times with phosphate buffered saline (PBS) and centrifuged for 5 min at 3000×g. Compounds (200 μg/mL) were incubated with 20% hRBC (v/v) for 1 h at 37° C. and shaking at 300 rpm. A value of 0% and 100% cell lyses, respectively, was determined by incubation of hRBC in the presence of PBS and 2.5% Triton X-100 in H2O, respectively. The samples were centrifuged, the supernatants were 8-fold diluted in PBS buffer and the optical densities (OD) were measured at 540 nm. The 100% lyses value (OD540H2O) gave an OD540 of approximately 0.5-1.0. Percent hemolysis was calculated as follows: (OD540peptide/OD540H2O)×100%.

In data set [2] the test system is Escherichia coli MCR-1 Af 45. As to conditions: MCR-1 Af 45. Here is the method:
(§1) Lyophilized peptides were weighed on a Microbalance (Mettler MT5) and dissolved in sterile water to a final concentration of 1 mg/mL. Stock solutions were kept at +4° C., light protected.
(§2) The selective antimicrobial activities of the peptides were determined in 96-well plates (Greiner, polystyrene) by the standard CLSI broth microdilution method (Clinical and Laboratory Standards Institute. Methods for Dilution Antimicrobial Susceptibility Tests for Bacteria That Grow Aerobically; Approved Standard-Ninth Edition. CLSI document M07-A9 (ISBN 1-56238-783-9 [Print]; ISBN 1-56238-784-7 [Electronic]). Clinical and Laboratory Standards Institute, 950 West Valley Road, Suite 2500, Wayne, Pennsylvania 19087, USA, 2012) with slight modifications.
(§3) Colonies of the microorganisms were diluted in saline (0.85%, NaCl) and adjusted using a McFarland reader (bioMérieux SA, Marcy-l'Etoile, France) to 0.5 McFarland standard. Subsequently, the bacterial suspension was diluted in Mueller-Hinton II (MHII, cation adjusted) broth to give approximately 5×10^5 colony forming units (CFU/mL).
(§4) Inocula of the microorganisms were diluted into Mueller-Hinton II (MH, cation adjusted) broth and compared with a 0.5 McFarland standard to give appr. 10^6 colony forming units (CFU)/mL. Aliquots (90 μl) of inoculate were added to 10 μl of water+P-80 (Polysorbate 80, 0.002% final concentration) containing the peptide in serial two-fold dilutions at 10 fold final concentration. The following microorganisms were used to determine antibiotic selectivity of the peptides: Escherichia coli ATCC 25922, Escherichia coli MCR-1 Af 45 and Klebsiella pneumoniae SSI3010. Antimicrobial activities of the peptides were expressed as the minimal inhibitory concentration (MIC) in μg/mL at which no visible growth was observed after 18-20 hours of incubation at 35° C.

In data set [3] the test system is Klebsiella pneumoniae SSI3010. As to conditions: SSI3010. As to the method: as §1, §2, §3, §4
Data set [4] concerns Escherichia coli ATCC 25922. As to conditions: ATCC 25922. As to the method:
as §1, §2, §3, §4

As for `CC[C@H](C)[C@H](NC(=O)[C@@H]1C[C@@H](O)CN1C(=O)[C@@H](N)C(C)C)C(=O)N[C@@H]1C(=O)N[C@@H](Cc2ccc(O)cc2)C(=O)N[C@@H](CCC(=O)O)C(=O)N[C@@H](CC(N)=O)C(=O)N[C@@H](CCCNC(=N)N)C(=O)N[C@@H](CCN)C(=O)N[C@@H]([C@@H](C)O)C(=O)N[C@H](CCN)C(=O)N[C@@H](CCCCN)C(=O)N[C@@H](CCN)C(=O)N[C@@H](CCN)C(=O)N[C@H](C(=O)N[C@@H](Cc2ccc(O)cc2)C(=O)O)CSSC1(C)C` [Example 17, Val-Hyp-Ile-Pen-Tyr-Glu-Asn-Arg-Dab-Thr-^DDab-Lys-Dab-Dab-Cys-Tyr] (H-V[Hyp]I[Pen]YENR[Dab]T[dDab]K[Dab][Dab]CY-OH; disulfide 4-15), the “Hemolysis at 0.2 g/L” value in data set [1] is less than 1%. In addition, the “Escherichia coli MCR-1 Af45 MIC” value in data set [2] was 0.25 µg/mL. For the same molecule, in data set [3], the “Klebsiella pneumoniae SSI3010 MIC” value stood at 0.5 µg/mL. Moreover, in data set [4], the “Escherichia coli ATCC 25922 MIC” value is 0.5 µg/mL.

For `CC[C@H](C)[C@H](NC(=O)[C@@H]1C[C@@H](O)CN1C(=O)[C@@H](N)C(C)C)C(=O)N[C@@H]1C(=O)N[C@@H](Cc2ccc(O)cc2)C(=O)N[C@@H](CC(N)=O)C(=O)N[C@@H](CC(N)=O)C(=O)N[C@@H](CCCNC(=N)N)C(=O)N[C@@H](CCN)C(=O)N[C@@H]([C@@H](C)O)C(=O)N[C@H](CCN)C(=O)N[C@@H](CCCCN)C(=O)N[C@@H](CCN)C(=O)N[C@@H](CCN)C(=O)N[C@H](C(=O)N[C@@H](Cc2ccc(O)cc2)C(=O)O)CSSC1(C)C` [Example 18, Val-Hyp-Ile-Pen-Tyr-Asn-Asn-Arg-Dab-Thr-^DDab-Lys-Dab-Dab-Cys-Tyr] (H-V[Hyp]I[Pen]YNNR[Dab]T[dDab]K[Dab][Dab]CY-OH; disulfide 4-15), in data set [1], the “Hemolysis at 0.2 g/L” value is less than 1%. Moreover, the “Escherichia coli MCR-1 Af45 MIC” value in data set [2] is 0.125 µg/mL. In data set [3], the “Klebsiella pneumoniae SSI3010 MIC” value came out at 0.25 µg/mL. In addition, the “Escherichia coli ATCC 25922 MIC” value in data set [4] was found to be 0.25 µg/mL.

For the molecule `CC[C@H](C)[C@H](NC(=O)[C@@H]1C[C@@H](O)CN1C(=O)[C@@H](N)C(C)C)C(=O)N[C@@H]1C(=O)N[C@@H](Cc2ccc(O)cc2)C(=O)N[C@@H]([C@@H](C)O)C(=O)N[C@@H](CC(N)=O)C(=O)N[C@@H](CCCNC(=N)N)C(=O)N[C@@H](CCN)C(=O)N[C@@H](CC(N)=O)C(=O)N[C@H](CCN)C(=O)N[C@@H](CCCCN)C(=O)N[C@@H](CCN)C(=O)N[C@@H](CCN)C(=O)N[C@H](C(=O)N[C@@H](Cc2ccc(O)cc2)C(=O)O)CSSC1(C)C` [Example 19, Val-Hyp-Ile-Pen-Tyr-Thr-Asn-Arg-Dab-Asn-^DDab-Lys-Dab-Dab-Cys-Tyr] (H-V[Hyp]I[Pen]YTNR[Dab]N[dDab]K[Dab][Dab]CY-OH; disulfide 4-15), the “Hemolysis at 0.2 g/L” value in data set [1] was less than 1%. In addition, in data set [2], the “Escherichia coli MCR-1 Af45 MIC” value turned out to be 0.125 µg/mL. For the same molecule, the “Klebsiella pneumoniae SSI3010 MIC” value in data set [3] amounted to 0.25 µg/mL. The “Escherichia coli ATCC 25922 MIC” value in data set [4] was determined as 0.125 µg/mL.

`CC[C@H](C)[C@H](NC(=O)[C@@H]1C[C@@H](O)CN1C(=O)[C@@H](N)C(C)C)C(=O)N[C@@H]1C(=O)N[C@@H](Cc2ccc(O)cc2)C(=O)N[C@@H](CO)C(=O)N[C@@H](C)C(=O)N[C@@H](CCCNC(=N)N)C(=O)N[C@@H](CCN)C(=O)N[C@@H]([C@@H](C)O)C(=O)N[C@H](CCN)C(=O)N[C@@H](CCCCN)C(=O)N[C@@H](CCN)C(=O)N[C@@H](CCN)C(=O)N[C@H](C(=O)N[C@@H](Cc2ccc(O)cc2)C(=O)O)CSSC1(C)C` [Example 20, Val-Hyp-Ile-Pen-Tyr-Ser-Ala-Arg-Dab-Thr-^DDab-Lys-Dab-Dab-Cys-Tyr] (H-V[Hyp]I[Pen]YSAR[Dab]T[dDab]K[Dab][Dab]CY-OH; disulfide 4-15): the “Hemolysis at 0.2 g/L” value in data set [1] is reported as less than 1%. The “Escherichia coli MCR-1 Af45 MIC” value in data set [2] amounted to 0.5 µg/mL. The “Klebsiella pneumoniae SSI3010 MIC” value in data set [3] is 1 µg/mL. Further, in data set [4], the “Escherichia coli ATCC 25922 MIC” value turned out to be 0.5 µg/mL.
